This is an account of results in publication PMC5007466, “VCP recruitment to mitochondria causes mitophagy impairment and neurodegeneration in models of Huntington's disease” (Nature Communications, 2016).

For one data set, the system named is C57Black mice. The data set is described as follows: Hematology of naive mice. The data set is classed as in vivo, mouse. The settings on record: 3 mg/kg/day, 4 weeks. Here is the method: Supplementary Figure 8 : Toxicity analysis of HV -3in naïve mice .
We performed a toxicity analysis of HV-3 in mice. Six -week-old C57Black mice were treated with saline or peptide HV-3 at 3mg/kg/day by Alzet pump implantation. After 4- week treatment, the plasma, blood and whole mouse bodies of mice were collected. Examination on blood chemistry (Supplementary Table 1), hematology (Supplementary Table 2) and general necropsy of mice were performed at the Animal Diagnostic Laboratory at Stanford University. The experimenter who conducted the analysis was blind to the treatment groups. Automated hematology was performed on the Sysmex XT-2000iV analyzer system. Blood smears were made for all full CBC samples and reviewed by a medical technologist. Manual differentials were performed as indicated by species and automated analysis. Chemistry analysis was performed on the Siemens Dimension Xpand analyzer. […]
Student’s t test. Four-week sustained treatment with HV-3 by pump implantation had no effects on blood chemistry (Supplementary Table 1), hematology (Supplementary Table 2), and gross necropsy of naïve mice when compared to mice treated with saline. […]
Table 2: Effects of 4-w eek treatment w ith HV-3 on hematology of naïve mice […]
Mean SD Mean SD p-value unit n

The subject of data set [1] is interaction of mtHtt with Tim23. Nature of the data set: Co-immunoprecipitation mtHtt/Tim23. The data set is classed as cell-based. The settings on record: HV-3 treatment; total cell lysates, IP/WB. Here is the method: (b) Stick drawings of VCP and Htt main domains. […] Immunoprecipitates were analysed by WB with the indicated antibodies. […] VCP mitochondrial levels were determined by WB. Loading control: VDAC. Data are mean±s.e.m. (g–i) ANOVA with Holm-Sidak post hoc test.

Data set [2] deals with HD patient-iPS cell derived neurons. Nature of the data set: LDH release after BDNF withdrawal. The data set is classed as cell-based, human. The settings on record: 1 μM per day for 5 days, BDNF withdrawal 24 h. How it is done: Figure 4 HV-3 treatment reduces mitochondrial damage and cell death in HD cell cultures. Mouse HdhQ7 and HdhQ111 striatal cells were treated with control peptide TAT or peptide HV-3 (3 uM/day for 3 days). (a) Left panel: Mitochondrial membrane potential (MMP) was determined by TMRM fluorescent dye. Right panel: HdhQ111 cells were transfected with control siRNA (siCon) and VCP siRNA (siVCP) for three days. The MMP was determined by TMRM in HdhQ111 cells treated with TAT or HV-3. (b) Mitochondrial morphology was determined by staining cells with anti-Tom20 antibody. Scale bar: 10 μm. The percentage of cells with fragmented mitochondria relative to the total number of cells was quantitated. At least 100 cells per group were counted. (c) Mitochondrial morphology was determined by EM. The length of mitochondria and the number of mitophagosomes were quantitated. At least 90 mitochondria per group were counted. […] HMGB1 release into culture medium was determined by IB analysis with anti-HMGB1 antibody. […] Cell death was determined by the release of LDH. […] (g) Quantitation of neurite length of medium spiny neurons. At least 50 neurons per group were counted by an observer blind to experimental conditions. (h) Left: the MMP was determined by TMRM fluorescent dye. […] Mitochondrial length along neurites of DARPP32/Tuj1-positive neurons was quantitated. […]
For orientation: Release of lactate dehydrogenase indicates damage to the cell membrane.

In the data set on C57Black mice (mean, n = 4/group), `CSCC[C@H](NC(=O)[C@@H](NC(=O)[C@H](CC(C)C)NC(=O)[C@@H](NC(=O)[C@H](Cc1c[nH]cn1)NC(=O)CCCCCNC(=O)[C@H](CCCNC(=N)N)NC(=O)[C@H](CCCNC(=N)N)NC(=O)[C@H](CCCNC(=N)N)NC(=O)[C@H](CCC(N)=O)NC(=O)[C@H](CCCNC(=N)N)NC(=O)[C@H](CCCNC(=N)N)NC(=O)[C@H](CCCCN)NC(=O)[C@H](CCCCN)NC(=O)[C@H](CCCNC(=N)N)NC(=O)CNC(=O)[C@@H](N)Cc1ccc(O)cc1)C(C)C)C(C)C)C(=O)N[C@@H](CS)C(=O)N[C@@H](C)C(=O)N[C@H](C(N)=O)[C@@H](C)O` [HV-3] came in with an Eosinophils of 37.00, an HCT of 44.60%, a Hgb of 13.93 gm/dL and an IRF of 53.97%. Further, in the data set on C57Black mice (mean, n = 4/group), the Lymphocytes is given as 1645.00, the MCH was 14.90 pg, the MCHC is listed as 31.27 g/dL and the MCV is 47.67 fL. In the data set with C57Black mice (mean, n = 4/group), this compound returned a Monocytes of 182.33, a Neutrophils of 1525.67, a Platelet count of 1021.33 K/uL and an RBC of 9.37 M/uL. Besides, in the data set on C57Black mice (mean, n = 4/group), the RDW is recorded as 21.77%, the “Reticulocyte Count” value was determined as 4.30% and the WBC is recorded as 3.39 K/uL. In addition, in the data set on C57Black mice (versus saline), the “hematology (overall)” value is “no effects”. Besides, the “interaction of mtHtt with Tim23” value in data set [1] is on record as “did not influence the interaction of mtHtt with Tim23”. Moreover, the neuronal cell death entry in data set [2] is listed as “suppressed neuronal cell death”.
